From patent US9738612B2, “Methylacryloyl benzimidazolone derivative and anti-tumour use thereof” (SHANGHAI NATURE STANDARD R&D AND BIOTECH CO., LTD, priority 2014, dated 2017)

Experiments:
Arg(h) = target: T1, Arg(h) (Homo sapiens, UniProt P42684); experiment: Tumor-associated kinase inhibition test; type: biochemical; settings: read-out: Inhibitory rate (%)
T1 construct: purchased Eurofins Pharma Discovery Services UK Limited (contract assay service)
Source text: (§1) Eurofins Pharma Discovery Services UK Limited completed and reported this experiment.

DYRK2(h) = target: T2, DYRK2(h) (Homo sapiens, UniProt Q92630); experiment: Tumor-associated kinase inhibition test; type: biochemical; settings: read-out: Inhibitory rate (%)
T2 construct: purchased Eurofins Pharma Discovery Services UK Limited (contract testing)
Source text: as §1

PKBβ(h) = target: T3, PKBβ(h) (Homo sapiens, UniProt P31751); experiment: Tumor-associated kinase inhibition test; type: biochemical; settings: read-out: Inhibitory rate (%)
T3 construct: purchased Eurofins Pharma Discovery Services UK Limited
Source text: as §1

MAPK2(h) = target: T4, MAPK2(h) (Homo sapiens, UniProt P28482); experiment: Tumor-associated kinase inhibition test; type: biochemical; settings: read-out: Inhibitory rate (%)
T4 construct: purchased Eurofins Pharma Discovery Services UK Limited
T4 sequence (P28482 whole entry): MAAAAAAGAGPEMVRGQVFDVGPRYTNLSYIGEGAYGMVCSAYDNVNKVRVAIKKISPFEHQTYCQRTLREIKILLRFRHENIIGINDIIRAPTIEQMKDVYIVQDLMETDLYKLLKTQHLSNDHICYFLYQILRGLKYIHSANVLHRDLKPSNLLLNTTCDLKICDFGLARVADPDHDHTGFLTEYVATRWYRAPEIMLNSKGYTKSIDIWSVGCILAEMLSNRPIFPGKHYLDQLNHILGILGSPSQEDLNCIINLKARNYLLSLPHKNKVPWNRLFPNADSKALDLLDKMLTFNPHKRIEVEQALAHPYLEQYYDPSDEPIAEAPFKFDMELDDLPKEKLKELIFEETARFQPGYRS
Source text: as §1

MEK1(h) = target: T5, MEK1(h) (Homo sapiens, UniProt Q02750); experiment: Tumor-associated kinase inhibition test; type: biochemical; settings: read-out: Inhibitory rate (%)
T5 construct: purchased Eurofins Pharma Discovery Services UK Limited
Source text: as §1

PKCδ(h) = target: T6, PKCδ(h) (Homo sapiens, UniProt Q05655); experiment: Tumor-associated kinase inhibition test; type: biochemical; settings: read-out: Inhibitory rate (%)
T6 construct: purchased Eurofins Pharma Discovery Services UK Limited
Source text: as §1

Fyn(h) = target: T7, Fyn(h) (Homo sapiens, UniProt P06241); experiment: Tumor-associated kinase inhibition test; type: biochemical; settings: read-out: Inhibitory rate (%)
T7 construct: purchased Eurofins Pharma Discovery Services UK Limited (contract testing)
Source text: as §1

PRK2(h) = target: T8, PRK2(h) (Homo sapiens, UniProt Q16513); experiment: Tumor-associated kinase inhibition test; type: biochemical; settings: read-out: Inhibitory rate (%)
T8 construct: purchased Eurofins Pharma Discovery Services UK Limited
Source text: as §1

Syk(h) = target: T9, Syk(h) (Homo sapiens, UniProt P43405); experiment: Tumor-associated kinase inhibition test; type: biochemical; settings: read-out: Inhibitory rate (%)
T9 construct: purchased Eurofins Pharma Discovery Services UK Limited
Source text: as §1

JAK2(h) = target: T10, JAK2(h) (Homo sapiens, UniProt O60674); experiment: Tumor-associated kinase inhibition test; type: biochemical; settings: read-out: Inhibitory rate (%)
T10 construct: purchased Eurofins Pharma Discovery Services UK Limited (contract testing)
T10 sequence (O60674 whole entry): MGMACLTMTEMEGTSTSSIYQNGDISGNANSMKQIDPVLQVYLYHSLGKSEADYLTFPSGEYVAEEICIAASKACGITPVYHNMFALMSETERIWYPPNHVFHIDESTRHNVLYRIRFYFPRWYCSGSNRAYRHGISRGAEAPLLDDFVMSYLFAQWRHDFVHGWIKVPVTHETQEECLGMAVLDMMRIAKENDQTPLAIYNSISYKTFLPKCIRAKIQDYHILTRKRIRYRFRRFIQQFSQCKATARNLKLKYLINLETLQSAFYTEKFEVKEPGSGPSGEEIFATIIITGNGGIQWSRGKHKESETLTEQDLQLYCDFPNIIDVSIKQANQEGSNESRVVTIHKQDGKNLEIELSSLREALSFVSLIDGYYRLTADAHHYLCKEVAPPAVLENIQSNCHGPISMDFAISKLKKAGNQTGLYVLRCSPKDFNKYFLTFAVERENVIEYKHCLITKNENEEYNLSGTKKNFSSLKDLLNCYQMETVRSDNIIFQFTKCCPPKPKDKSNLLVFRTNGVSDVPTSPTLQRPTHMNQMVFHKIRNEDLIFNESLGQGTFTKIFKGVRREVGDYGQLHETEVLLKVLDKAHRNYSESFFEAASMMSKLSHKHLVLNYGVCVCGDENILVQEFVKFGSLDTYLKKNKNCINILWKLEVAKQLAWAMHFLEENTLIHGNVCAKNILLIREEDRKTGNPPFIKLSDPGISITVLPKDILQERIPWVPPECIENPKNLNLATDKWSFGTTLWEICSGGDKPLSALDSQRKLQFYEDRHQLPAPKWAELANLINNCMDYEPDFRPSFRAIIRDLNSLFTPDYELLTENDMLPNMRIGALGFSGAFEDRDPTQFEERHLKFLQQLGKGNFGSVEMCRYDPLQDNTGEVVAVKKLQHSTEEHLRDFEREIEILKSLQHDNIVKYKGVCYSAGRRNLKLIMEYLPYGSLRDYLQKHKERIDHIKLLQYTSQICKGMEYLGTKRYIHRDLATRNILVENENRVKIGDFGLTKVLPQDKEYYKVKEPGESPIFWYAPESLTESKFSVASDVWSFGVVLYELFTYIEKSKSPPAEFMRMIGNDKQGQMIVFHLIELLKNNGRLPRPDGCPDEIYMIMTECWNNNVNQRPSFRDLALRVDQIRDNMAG
Source text: as §1

JNK2α2(h) = target: T11, JNK2α2(h) (Homo sapiens, UniProt P45984); experiment: Tumor-associated kinase inhibition test; type: biochemical; settings: read-out: Inhibitory rate (%)
T11 construct: purchased Eurofins Pharma Discovery Services UK Limited (contract testing)
Source text: as §1

CaMKK2(h) = target: T12, CaMKK2(h) (Homo sapiens, UniProt Q96RR4); experiment: Tumor-associated kinase inhibition test; type: biochemical; settings: read-out: Inhibitory rate (%)
T12 construct: purchased Eurofins Pharma Discovery Services UK Limited (contract assay service)
Source text: as §1

CDK2/cyclinA(h) = target: T13, CDK2/cyclinA(h) (Homo sapiens, UniProt P24941); experiment: Tumor-associated kinase inhibition test; type: biochemical; settings: read-out: Inhibitory rate (%)
T13 construct: purchased Eurofins Pharma Discovery Services UK Limited (contract assay service)
Source text: as §1

PI3KC2α(h) = target: T14, PI3KC2α(h) (Homo sapiens, UniProt O00443); experiment: Tumor-associated kinase inhibition test; type: biochemical; settings: read-out: Inhibitory rate (%)
T14 construct: purchased Eurofins Pharma Discovery Services UK Limited (contract assay)
Source text: as §1

B-Raf(V599E)(h) = target: T15, B-Raf(V599E)(h) (Homo sapiens, UniProt P15056, V600E); experiment: Tumor-associated kinase inhibition test; type: biochemical; settings: read-out: Inhibitory rate (%)
T15 construct: purchased Eurofins Pharma Discovery Services UK Limited (contract assay service)
T15 sequence (P15056 416-766 V600E limits assumed): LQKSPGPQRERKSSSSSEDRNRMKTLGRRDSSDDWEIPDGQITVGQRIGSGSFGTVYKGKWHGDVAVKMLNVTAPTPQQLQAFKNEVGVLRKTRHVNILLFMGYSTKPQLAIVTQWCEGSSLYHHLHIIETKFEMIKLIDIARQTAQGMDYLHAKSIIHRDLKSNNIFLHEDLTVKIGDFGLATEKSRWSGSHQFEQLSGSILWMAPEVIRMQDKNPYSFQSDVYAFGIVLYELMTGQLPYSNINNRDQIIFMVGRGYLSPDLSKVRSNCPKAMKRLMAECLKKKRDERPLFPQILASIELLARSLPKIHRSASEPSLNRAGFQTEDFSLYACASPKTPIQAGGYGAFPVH
Source text: as §1

LKB1(h) = target: T16, LKB1(h) (Homo sapiens, UniProt Q15831); experiment: Tumor-associated kinase inhibition test; type: biochemical; settings: read-out: Inhibitory rate (%)
T16 construct: purchased Eurofins Pharma Discovery Services UK Limited
Source text: as §1

PIP5K1α(h) = target: T17, PIP5K1α(h) (Homo sapiens, UniProt Q99755); experiment: Tumor-associated kinase inhibition test; type: biochemical; settings: read-out: Inhibitory rate (%)
T17 construct: purchased Eurofins Pharma Discovery Services UK Limited (contract assay)
T17 sequence (Q99755 whole entry): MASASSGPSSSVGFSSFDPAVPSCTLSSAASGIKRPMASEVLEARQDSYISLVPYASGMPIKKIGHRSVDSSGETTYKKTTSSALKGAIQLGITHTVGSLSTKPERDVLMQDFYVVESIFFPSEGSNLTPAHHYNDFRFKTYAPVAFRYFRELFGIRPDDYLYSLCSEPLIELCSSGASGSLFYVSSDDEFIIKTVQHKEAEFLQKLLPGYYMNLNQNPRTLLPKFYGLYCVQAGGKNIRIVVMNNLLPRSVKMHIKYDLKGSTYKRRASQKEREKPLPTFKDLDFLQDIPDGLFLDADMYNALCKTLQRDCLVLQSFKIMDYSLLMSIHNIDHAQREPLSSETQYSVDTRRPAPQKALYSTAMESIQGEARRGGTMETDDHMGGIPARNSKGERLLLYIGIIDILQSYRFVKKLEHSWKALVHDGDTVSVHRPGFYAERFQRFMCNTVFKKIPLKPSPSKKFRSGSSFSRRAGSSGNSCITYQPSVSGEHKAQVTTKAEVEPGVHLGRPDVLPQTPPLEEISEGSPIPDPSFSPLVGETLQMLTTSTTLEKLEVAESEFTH
Source text: as §1

p70S6K(h) = target: T18, p70S6K(h) (Homo sapiens, UniProt P23443); experiment: Tumor-associated kinase inhibition test; type: biochemical; settings: read-out: Inhibitory rate (%)
T18 construct: purchased Eurofins Pharma Discovery Services UK Limited
Source text: as §1

BTK(h) = target: T19, BTK(h) (Homo sapiens, UniProt Q06187); experiment: Tumor-associated kinase inhibition test; type: biochemical; settings: read-out: Inhibitory rate (%)
T19 construct: purchased Eurofins Pharma Discovery Services UK Limited (contract assay service)
T19 sequence (Q06187 whole entry): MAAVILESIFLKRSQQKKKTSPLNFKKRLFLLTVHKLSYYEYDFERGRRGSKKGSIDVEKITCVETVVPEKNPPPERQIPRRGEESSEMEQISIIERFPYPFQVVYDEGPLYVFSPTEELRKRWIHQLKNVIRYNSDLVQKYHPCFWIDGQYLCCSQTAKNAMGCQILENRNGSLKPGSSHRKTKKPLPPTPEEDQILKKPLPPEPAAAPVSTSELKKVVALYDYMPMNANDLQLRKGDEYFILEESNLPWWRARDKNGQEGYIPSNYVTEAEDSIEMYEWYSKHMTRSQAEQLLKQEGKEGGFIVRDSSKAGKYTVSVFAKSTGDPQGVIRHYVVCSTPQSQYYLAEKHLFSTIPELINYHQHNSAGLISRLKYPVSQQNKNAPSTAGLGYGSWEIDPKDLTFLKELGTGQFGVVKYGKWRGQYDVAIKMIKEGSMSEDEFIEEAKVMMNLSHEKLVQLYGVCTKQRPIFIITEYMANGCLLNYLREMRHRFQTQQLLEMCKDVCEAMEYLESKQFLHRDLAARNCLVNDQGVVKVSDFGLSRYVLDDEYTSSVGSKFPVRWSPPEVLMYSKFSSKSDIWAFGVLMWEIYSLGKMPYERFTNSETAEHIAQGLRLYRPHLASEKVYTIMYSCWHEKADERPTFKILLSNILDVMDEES
Source text: as §1

CHK1(h) = target: T20, CHK1(h) (Homo sapiens, UniProt O14757); experiment: Tumor-associated kinase inhibition test; type: biochemical; settings: read-out: Inhibitory rate (%)
T20 construct: purchased Eurofins Pharma Discovery Services UK Limited (contract assay service)
Source text: as §1

FGFR3(h) = target: T21, FGFR3(h) (Homo sapiens, UniProt P22607); experiment: Tumor-associated kinase inhibition test; type: biochemical; settings: read-out: Inhibitory rate (%)
T21 construct: purchased Eurofins Pharma Discovery Services UK Limited (contract testing)
Source text: as §1

FAK(h) = target: T22, FAK(h) (Homo sapiens, UniProt Q05397); experiment: Tumor-associated kinase inhibition test; type: biochemical; settings: read-out: Inhibitory rate (%)
T22 construct: purchased Eurofins Pharma Discovery Services UK Limited (contract testing)
Source text: as §1

NEK2(h) = target: T23, NEK2(h) (Homo sapiens, UniProt P51955); experiment: Tumor-associated kinase inhibition test; type: biochemical; settings: read-out: Inhibitory rate (%)
T23 construct: purchased Eurofins Pharma Discovery Services UK Limited
Source text: as §1

PAR-1Bα(h) = target: T24, PAR-1Bα(h) (Homo sapiens, UniProt Q7KZI7); experiment: Tumor-associated kinase inhibition test; type: biochemical; settings: read-out: Inhibitory rate (%)
T24 construct: purchased Eurofins Pharma Discovery Services UK Limited
Source text: as §1

CaMKIV(h) = target: T25, CaMKIV(h) (Homo sapiens, UniProt Q16566); experiment: Tumor-associated kinase inhibition test; type: biochemical; settings: read-out: Inhibitory rate (%)
T25 construct: purchased Eurofins Pharma Discovery Services UK Limited (contract assay service)
Source text: as §1

PKBα(h) = target: T26, PKBα(h) (Homo sapiens, UniProt P31749); experiment: Tumor-associated kinase inhibition test; type: biochemical; settings: read-out: Inhibitory rate (%)
T26 construct: purchased Eurofins Pharma Discovery Services UK Limited
Source text: as §1

ASK1(h) = target: T27, ASK1(h) (Homo sapiens, UniProt Q99683); experiment: Tumor-associated kinase inhibition test; type: biochemical; settings: read-out: Inhibitory rate (%)
T27 construct: purchased Eurofins Pharma Discovery Services UK Limited (contract assay service)
Source text: as §1

Ros(h) = target: T28, Ros(h) (Homo sapiens, UniProt P08922); experiment: Tumor-associated kinase inhibition test; type: biochemical; settings: read-out: Inhibitory rate (%)
T28 construct: purchased Eurofins Pharma Discovery Services UK Limited
Source text: as §1

[1] = target: T29, PI3Kinase(p110α(E545K)/p85α)(h) (Homo sapiens, UniProt P42336, E545K); experiment: Tumor-associated kinase inhibition test; type: biochemical; settings: read-out: Inhibitory rate (%)
T29 construct: purchased Eurofins Pharma Discovery Services UK Limited (contract assay)
T29 sequence (P42336 whole entry E545K): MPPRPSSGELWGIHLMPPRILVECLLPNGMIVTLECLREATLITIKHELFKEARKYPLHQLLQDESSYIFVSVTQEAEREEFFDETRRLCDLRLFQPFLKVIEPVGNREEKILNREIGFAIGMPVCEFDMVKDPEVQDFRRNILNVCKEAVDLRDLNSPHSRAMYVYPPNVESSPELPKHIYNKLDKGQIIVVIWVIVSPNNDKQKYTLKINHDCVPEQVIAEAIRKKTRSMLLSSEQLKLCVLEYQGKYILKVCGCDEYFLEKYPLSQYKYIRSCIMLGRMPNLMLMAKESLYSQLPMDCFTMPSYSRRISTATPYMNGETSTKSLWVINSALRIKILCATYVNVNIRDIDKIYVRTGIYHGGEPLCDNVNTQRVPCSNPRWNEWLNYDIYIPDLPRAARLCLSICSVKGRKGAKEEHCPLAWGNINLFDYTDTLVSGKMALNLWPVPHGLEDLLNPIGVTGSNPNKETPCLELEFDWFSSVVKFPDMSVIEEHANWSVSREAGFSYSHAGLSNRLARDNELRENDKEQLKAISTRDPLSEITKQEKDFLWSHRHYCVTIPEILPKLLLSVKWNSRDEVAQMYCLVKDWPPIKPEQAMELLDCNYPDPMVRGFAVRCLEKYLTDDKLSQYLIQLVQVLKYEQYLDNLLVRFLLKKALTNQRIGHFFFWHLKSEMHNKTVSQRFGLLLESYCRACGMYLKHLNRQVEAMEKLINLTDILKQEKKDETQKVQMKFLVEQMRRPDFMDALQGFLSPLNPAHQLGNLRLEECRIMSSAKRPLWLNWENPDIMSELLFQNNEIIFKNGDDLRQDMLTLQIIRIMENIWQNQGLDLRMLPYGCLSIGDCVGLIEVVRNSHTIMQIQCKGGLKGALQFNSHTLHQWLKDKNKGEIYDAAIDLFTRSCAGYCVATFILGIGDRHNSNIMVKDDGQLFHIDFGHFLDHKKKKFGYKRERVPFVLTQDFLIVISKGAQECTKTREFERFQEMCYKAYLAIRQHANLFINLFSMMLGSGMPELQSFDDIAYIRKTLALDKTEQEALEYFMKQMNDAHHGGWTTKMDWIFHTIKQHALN
T29 sequence (P27986 whole entry partner): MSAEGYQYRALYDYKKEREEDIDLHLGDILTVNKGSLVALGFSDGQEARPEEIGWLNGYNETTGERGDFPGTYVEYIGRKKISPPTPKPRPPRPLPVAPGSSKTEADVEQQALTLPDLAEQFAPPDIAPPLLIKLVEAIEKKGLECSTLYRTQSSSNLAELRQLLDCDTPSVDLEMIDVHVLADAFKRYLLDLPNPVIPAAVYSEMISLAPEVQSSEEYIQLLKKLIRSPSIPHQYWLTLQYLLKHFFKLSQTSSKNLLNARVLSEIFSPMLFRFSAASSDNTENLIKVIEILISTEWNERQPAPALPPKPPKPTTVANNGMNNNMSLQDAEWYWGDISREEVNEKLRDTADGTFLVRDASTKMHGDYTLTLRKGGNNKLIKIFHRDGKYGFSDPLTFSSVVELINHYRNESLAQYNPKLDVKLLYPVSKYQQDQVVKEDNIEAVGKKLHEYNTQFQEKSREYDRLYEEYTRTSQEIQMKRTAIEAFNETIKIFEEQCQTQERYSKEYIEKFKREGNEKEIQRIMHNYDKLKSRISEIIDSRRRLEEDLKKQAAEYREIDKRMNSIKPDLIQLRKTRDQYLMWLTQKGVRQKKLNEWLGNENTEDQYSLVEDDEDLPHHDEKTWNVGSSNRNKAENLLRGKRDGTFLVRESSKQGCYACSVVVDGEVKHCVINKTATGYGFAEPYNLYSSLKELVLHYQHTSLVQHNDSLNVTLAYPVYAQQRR
Source text: as §1

[2] = system: Akt phosphorylation at S473 site; experiment: ELISA (double antibody sandwich), Akt phosphorylation in IGF-1 stimulated A549 cells; type: cell-based; settings: drug 1 h, then IGF-1 10 min, p-Akt (S473) ELISA
Method: Establishment of ELISA screening method using a double antibody sandwich method: A549 cells (a lung cancer cell line, purchased from Chinese Academy of Sciences, Shanghai Institutes for Biological Sciences Cell Resource Center) were inoculated at certain densities in 12-well plates, and incubated at 37° C. in a carbon dioxide incubator overnight to let cells attach the plate wells. Meanwhile the Akt antibody was inoculated at a specific concentration in a highly-adsorbed microplate, and placed in a refrigerator at 4° C. The 12-well plates were washed with sterile PBS three times, then into which serum-free F12 was added, and incubated for 24 hours in a incubator. Then MK2206, Triciribine and FD series drugs were added into 12-well plates and worked for one hour, followed by adding 100 ng of IGF-1 and being stimulated for 10 minutes. The 12-well plates were washed with pre-cooled PBS three times, and 100 μl of RIPA lysis buffer was added into each well to lyse cells on ice for 20 minutes. The lysates were collected and added to the appropriate microplate (purchased from Santa Cruz biotechnology), which were shaken on ice. A p-Akt (S473) antibody (purchased Cell Signaling Technology, Inc.) was added into microplates. After shaking for a period of time, an anti-rabbit antibody (purchased from Cell Signaling Technology, Inc.) was added. The reaction was terminated with 2M sulfuric acid after TMB developed. Absorbance at 450 nm was measured on a microplate reader, and the inhibitory rate=[…], among which ODsample refers to the absorbance of the sample well, ODIGF refers the absorbance of the well with IGF only, OD—IGF refers the absorbance of the well withoutIGF.

- inhibition at 10 µM (Arg(h)): -7%
- inhibition at 10 µM (DYRK2(h)): 1%
- inhibition at 10 µM (PKBβ(h)): 4%
- inhibition at 10 µM (MAPK2(h)): -6%
- inhibition at 10 µM (MEK1(h)): -2%
- inhibition at 10 µM (PKCδ(h)): 18%
- inhibition at 10 µM (Fyn(h)): 2%
- inhibition at 10 µM (PRK2(h)): -9%
- inhibition at 10 µM (Syk(h)): 0%
- inhibition at 10 µM (JAK2(h)): 7%
- inhibition at 10 µM (JNK2α2(h)): 3%
- inhibition at 10 µM (CaMKK2(h)): 1%
- inhibition at 10 µM (CDK2/cyclinA(h)): -2%
- inhibition at 10 µM (PI3KC2α(h)): 7%
- inhibition at 10 µM (B-Raf(V599E)(h)): -1%
- inhibition at 10 µM (LKB1(h)): 8%
- inhibition at 10 µM (PIP5K1α(h)): -2%
- inhibition at 10 µM (p70S6K(h)): 3%
- inhibition at 10 µM (BTK(h)): 7%
- inhibition at 10 µM (CHK1(h)): -14%
- inhibition at 10 µM (FGFR3(h)): 7%
- inhibition at 10 µM (FAK(h)): 1%
- inhibition at 10 µM (NEK2(h)): -6%
- inhibition at 10 µM (PAR-1Bα(h)): 6%
- inhibition at 10 µM (CaMKIV(h)): 2%
- inhibition at 10 µM (PKBα(h)): 4%
- inhibition at 10 µM (ASK1(h)): 4%
- inhibition at 10 µM (Ros(h)): -13%
- inhibition at 10 µM [1]: 4%
SMILES: C=C(C)n1c(=O)n(C(C)=O)c2ncc(Br)cc21 [FD162]
- Inhibitory rate % (Akt phosphorylation) [2]: 91%
